From patent US9096593B2, “Compounds and methods for kinase modulation, and indications therefor” (Plexxikon Inc., priority 2009, dated 2015)

Target: BCR-KIT/BaF3 cells (Homo sapiens, UniProt P10721)
Assay: BCR-KIT/BaF3 cell proliferation assay (ATPlite)
Format: cell-based
Settings: read-out: BCR/BaF3 (IC50 μM) Kit
Experimental: Compounds are assessed in a variety of cell based assays. For example BCR-FMS/BaF3, BCR-KIT/BaF3, M-NFS-60, M-07e, and BAC1.2F5 cell proliferation assays are used to assess inhibitory activity of Fms or Kit and MV-4-11 cell proliferation assay is used to assess inhibitory activity in Flt-3. Reagent and assay conditions are as follows: • BCR-FMS/BaF3 and BCR-KIT/BaF3 cells: • Maintained in RPMI containing 10% FBS, 1% PenStrep, 1% NEAA, and 1% L-Glutamine, supplemented with 1 mg/mL G418 and 5% WEHI-CM (or recombinant murine IL-3). • Confluent cells are split 1:50 to 1:100 every 3-4 days. • M-NFS-60 cells (ATCC #CRL-1838): • Maintained in RPMI containing 10% FBS, 1% Hepes, 1% NaPyruvate, and 0.45% Glucose, supplemented with 62 ng/mL murine M-CSF. • Confluent cells are split 1:20 every 3-4 days. • M-07e cells (DSMZ #ACC 104): • Maintained in IMDM containing 10% FBS, supplemented with either 200 ng/mL human SCF or […] SCF (R&D Systems 255-SC). • Confluent cells are split 1:5 to 1:10 every 3-4 days. • BAC1.2F5 cells: • Maintained in Alpha-MEM containing 10% Newborn Calf Serum (Invitrogen #26010-074) supplemented with 36 ng/mL murine M-CSF. • Confluent cells are split 1:4 every 3-4 days. • MV-4-11 cells: • Maintained in Iscove's Modified Dulbecco's Medium containing 10% FBS. • Confluent cells are split 1:4 every 3-4 days. On day 1, cells are counted, then centrifuged in a conical tube for 5 minutes at 1000 rpm. The supernatant is removed and cells are re-suspended as follows: • BCR-FMS/BaF3 and BCR-KIT/BaF3: resuspend in growth media+1 mg/mL G418 (without WEHI/IL-3) to 2×10^5 cells/mL. • M-NFS-60: resuspend in growth media +62 ng/mL murine M-CSF to 5×10^5 cells/mL. • M-07e: resuspend in growth media +200 ng/mL human SCF to 5×10^5 cells/mL. • BAC1.2F5: resuspend in growth media +36 ng/mL murine M-CSF to 1.4×10^5 cells/mL. • MV-4-11: resuspend in growth media +10% FBS to 5×10^5 cells/mL. The cells are plated (50 μL) in each well of a 96-well dish (Corning 3610) and incubated at 37° C. in 5% CO2 overnight, cells plated to a final concentration of cells as follows: • BCR-FMS/BaF3 and BCR-KIT/BaF3: 10,000 cells per well. • M-NFS-60: 25,000 cells per well. • M-07e: 25,000 cells per well. • BAC1.2F5: 7,000 cells per well. • MV-4-11: 25,000 cells per well. On day 2, compound at a maximum concentration of 5 mM is serially diluted 1:3 for a total of 8 point titration with DMSO as a control. A 1 μL aliquot of each dilution point is added to 249 μL growth media and 50 μL is added to a well containing cells, providing 10 μM compound for the maximum concentration point. The cells are incubated for 3 days at 37° C. in 5% CO2. On day 5, ATPlite 1 step Luminescence Assay System (Perkin Elmer #6016739) is brought to room temperature along with the cell cultures. ATPlite is added to each well as follows: • BCR-FMS/BaF3 and BCR-KIT/BaF3: 25 μL per well. • M-NFS-60: 25 μL per well. • M-07c: 40 μL per well. • BAC1.2F5: 50 μL per well. • MV-4-11: 40 μL per well. The cells are incubated at room temperature for 10 minutes, then luminescence is read on Safire reader. The measured luminescence correlates directly with cell number, such that the reading as a function of compound concentration is used to determine the IC50 value.

Sequence of BCR-KIT/BaF3 cells (P10721 26-976 limits assumed, change not shown): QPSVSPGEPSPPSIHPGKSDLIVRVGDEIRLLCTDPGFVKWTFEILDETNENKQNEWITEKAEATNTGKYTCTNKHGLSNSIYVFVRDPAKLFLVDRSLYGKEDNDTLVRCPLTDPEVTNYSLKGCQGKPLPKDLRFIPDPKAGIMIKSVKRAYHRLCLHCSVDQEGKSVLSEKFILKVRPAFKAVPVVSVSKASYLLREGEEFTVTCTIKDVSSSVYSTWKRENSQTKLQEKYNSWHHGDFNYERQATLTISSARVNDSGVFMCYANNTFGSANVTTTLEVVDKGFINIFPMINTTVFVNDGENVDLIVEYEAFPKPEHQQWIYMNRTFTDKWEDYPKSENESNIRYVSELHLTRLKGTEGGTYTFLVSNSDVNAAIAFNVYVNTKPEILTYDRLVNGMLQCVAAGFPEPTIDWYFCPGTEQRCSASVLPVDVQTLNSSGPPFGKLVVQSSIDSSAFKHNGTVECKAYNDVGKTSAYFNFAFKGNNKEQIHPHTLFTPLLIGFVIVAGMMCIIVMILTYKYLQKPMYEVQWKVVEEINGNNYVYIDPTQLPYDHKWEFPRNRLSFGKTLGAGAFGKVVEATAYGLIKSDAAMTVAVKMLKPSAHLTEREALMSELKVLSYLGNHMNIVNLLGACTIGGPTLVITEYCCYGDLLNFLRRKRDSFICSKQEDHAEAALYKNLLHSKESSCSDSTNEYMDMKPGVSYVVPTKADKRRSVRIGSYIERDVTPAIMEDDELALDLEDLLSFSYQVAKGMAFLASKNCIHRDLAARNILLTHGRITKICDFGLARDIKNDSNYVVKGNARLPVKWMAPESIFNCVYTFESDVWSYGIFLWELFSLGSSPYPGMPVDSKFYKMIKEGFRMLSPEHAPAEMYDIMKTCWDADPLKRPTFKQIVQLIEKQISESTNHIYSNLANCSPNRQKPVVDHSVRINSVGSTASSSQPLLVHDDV

`Fc1ccc(CNc2ncc(Cc3c[nH]c4ncc(Cl)cc34)cn2)cc1F` [Compound P-2008, [5-(5-Chloro-1H-pyrrolo[2,3-b]pyridin-3-ylmethyl)-pyrimidin-2-yl]-(3,4-difluoro-benzyl)-amine] and `Cc1cccc(CNc2ncc(Cc3c[nH]c4ncc(Cl)cc34)cn2)c1` [Compound P-2013, [5-(5-Chloro-1H-pyrrolo[2,3-b]pyridin-3-ylmethyl)-pyrimidin-2-yl]-(3-methyl-benzyl)-amine] cannot be ordered by IC50: greater than 0.1 µM for the first, greater than 0.1 µM for the second.

`COc1cnc2[nH]cc(Cc3ccc(NCc4cccnc4OC)nc3F)c2c1` [Compound P-2043, [6-Fluoro-5-(5-methoxy-1H-pyrrolo[2,3-b]pyridin-3-ylmethyl)-pyridin-2-yl]-(2-methoxy-pyridin-3-ylmethyl)-amine] and `COc1ccc(CNc2ccc(Cc3c[nH]c4ncc(C)cc34)c(F)n2)c(OC)n1` [Compound P-2097, (2,6-Dimethoxy-pyridin-3-ylmethyl)-[6-fluoro-5-(5-methyl-1H-pyrrolo[2,3-b]pyridin-3-ylmethyl)-pyridin-2-yl]-amine] cannot be ordered by IC50: greater than 0.1 µM for the first, greater than 0.1 µM for the second.

`FC(F)(F)c1ccncc1CNc1ccc(Cc2c[nH]c3ncc(Cl)cc23)cn1` [Compound P-2063, [5-(5-Chloro-1H-pyrrolo[2,3-b]pyridin-3-ylmethyl)-pyridin-2-yl]-(4-trifluoromethyl-pyridin-3-ylmethyl)-amine] and `Cc1cnc2[nH]cc(Cc3ccc(NCc4cnccc4C(F)(F)F)nc3)c2c1` [Compound P-2070, [5-(5-Methyl-1H-pyrrolo[2,3-b]pyridin-3-ylmethyl)-pyridin-2-yl]-(4-trifluoromethyl-pyridin-3-ylmethyl)-amine] cannot be ordered by IC50: greater than 0.1 µM for the first, greater than 0.1 µM for the second.

`Cc1cnc2[nH]cc(Cc3cnc(NCc4ccc(Cl)nc4)nc3)c2c1` [Compound P-2078, (6-Chloro-pyridin-3-ylmethyl)-[5-(5-methyl-1H-pyrrolo[2,3-b]pyridin-3-ylmethyl)-pyrimidin-2-yl]-amine] and `Cc1cnc2[nH]cc(Cc3cnc(NCc4cccc(C)n4)nc3)c2c1` [Compound P-2079, (6-Methyl-pyridin-2-ylmethyl)-[5-(5-methyl-1H-pyrrolo[2,3-b]pyridin-3-ylmethyl)-pyrimidin-2-yl]-amine] cannot be ordered by IC50: greater than 0.1 µM for the first, greater than 0.1 µM for the second.

`Cc1cnc2[nH]cc(Cc3cnc(NCc4cccc(N5CCOCC5)n4)nc3)c2c1` [Compound P-2081, [5-(5-Methyl-1H-pyrrolo[2,3-b]pyridin-3-ylmethyl)-pyrimidin-2-yl]-(6-morpholin-4-yl-pyridin-2-ylmethyl)-amine] and `Cc1cnc2[nH]cc(Cc3cnc(NCc4cccc(N5CCCC5)n4)nc3)c2c1` [Compound P-2082, [5-(5-Methyl-1H-pyrrolo[2,3-b]pyridin-3-ylmethyl)-pyrimidin-2-yl]-(6-pyrrolidin-1-yl-pyridin-2-ylmethyl)-amine] cannot be ordered by IC50: greater than 0.1 µM for the first, greater than 0.1 µM for the second.

`Cc1cnc2[nH]cc(Cc3ccc(NCc4ccc(Cl)nc4)nc3F)c2c1` [Compound P-2088, (6-Chloro-pyridin-3-ylmethyl)-[6-fluoro-5-(5-methyl-1H-pyrrolo[2,3-b]pyridin-3-ylmethyl)-pyridin-2-yl]-amine] and `Cc1cnc2[nH]cc(Cc3ccc(NCc4ccnc(F)c4)nc3F)c2c1` [Compound P-2118, [6-Fluoro-5-(5-methyl-1H-pyrrolo[2,3-b]pyridin-3-ylmethyl)-pyridin-2-yl]-(2-fluoro-pyridin-4-ylmethyl)-amine] cannot be ordered by IC50: greater than 0.1 µM for the first, greater than 0.1 µM for the second.

`Cc1cnc2[nH]cc(Cc3ccc(NCc4cccnc4F)nc3F)c2c1` [Compound P-2103, [6-Fluoro-5-(5-methyl-1H-pyrrolo[2,3-b]pyridin-3-ylmethyl)-pyridin-2-yl]-(2-fluoro-pyridin-3-ylmethyl)-amine] and `Cc1ccc(CNc2ccc(Cc3c[nH]c4ncc(C)cc34)c(F)n2)nc1` [Compound P-2131, [6-Fluoro-5-(5-methyl-1H-pyrrolo[2,3-b]pyridin-3-ylmethyl)-pyridin-2-yl]-(5-methyl-pyridin-2-ylmethyl)-amine] cannot be ordered by IC50: greater than 0.1 µM for the first, greater than 0.1 µM for the second.

`COc1ncccc1CNc1ncc(Cc2c[nH]c3ncc(C)cc23)cn1` [Compound P-2139, (2-Methoxy-pyridin-3-ylmethyl)-[5-(5-methyl-1H-pyrrolo[2,3-b]pyridin-3-ylmethyl)-pyrimidin-2-yl]-amine] and `Cc1cnc2[nH]cc(Cc3cnc(NCc4cccnc4OC4CCCC4)nc3)c2c1` [Compound P-2148, (2-Cyclopentyloxy-pyridin-3-ylmethyl)-[5-(5-methyl-1H-pyrrolo[2,3-b]pyridin-3-ylmethyl)-pyrimidin-2-yl]-amine] cannot be ordered by IC50: greater than 0.1 µM for the first, greater than 0.1 µM for the second.

First: COc1cnc2[nH]cc(Cc3cnc(NCc4ccc(C(F)(F)F)nc4)c(F)c3)c2c1 [Compound P-2147, [3-Fluoro-5-(5-methoxy-1H-pyrrolo[2,3-b]pyridin-3-ylmethyl)-pyridin-2-yl]-(6-trifluoromethyl-pyridin-3-ylmethyl)-amine]
Second: COc1ccc(CNc2ncc(Cc3c[nH]c4ncc(Cl)cc34)s2)cn1 [Compound P-2154, [5-(5-Chloro-1H-pyrrolo[2,3-b]pyridin-3-ylmethyl)-thiazol-2-yl]-(6-methoxy-pyridin-3-ylmethyl)-amine]
The IC50 of the first is lower: less than 0.1 µM for the first, greater than 0.1 µM for the second.

`Cn1cc(F)cc(CNc2ncc(Cc3c[nH]c4ncc(Cl)cc34)cn2)c1=O` [Compound P-2157, 3-{[5-(5-Chloro-1H-pyrrolo[2,3-b]pyridin-3-ylmethyl)-pyrimidin-2-ylamino]-methyl}-5-fluoro-1-methyl-1H-pyridin-2-one] gave an IC50 greater than 0.1 µM.

Test system: not listed separately
Assay: Turbidity assay of relative solubility in aqueous buffers
Format: physicochemical
Settings: pH 1.4 as headed (method: SGF pH 1.5)
Experimental: As an indication of relative solubility, the turbidity of compounds in aqueous solutions is assessed. To assess possible compound properties in different physiological compartments, such as stomach, intestine, and blood, a series of aqueous buffers with varying pH is used. Thus each compound is diluted into four different physiologically relevant buffers and solution turbidity is measured by spectrophotometry.
Compounds are dissolved at a concentration of 25 mM in dimethyl sulfoxide, then serially diluted 1:1 into a 96 well plate, diluting 10 times in pure dimethyl sulfoxide, with the final well of each row a dimethyl sulfoxide blank. In an assay plate, 99 μL of appropriate buffer is added to each well, and 1 μL of each sample dilution is added to the buffer, achieving a range of final total concentrations in aqueous solutions having different pH. The buffers used are Simulated Gastric Fluid (SGF-pH 1.5) 0.5M NaCl, pH 1.5; Simulated Intestinal fluid (SIF-pH 4.5 and pH 6.8) 0.05M NaH2PO4, pH 4.5 and 6.8; and Hepes Buffer (HEPES-pH 7.4) 10 mM HEPES, 150 mM NaCl, pH 7.4. Control compounds pyrene, estriol and propranolol HCl are also assessed. Plates are spun and then mixed for 1 minute, and the absorbance is read using a Tecan Safire II to read wavelengths in the visible range (490, 535, and 650 nm) at four locations per well, reflecting the degree of turbidity present. The average optical density for each wavelength in each well is graphed vs. compound concentration, and the concentration at which the curve crosses a threshold O.D. of 0.01 for each wavelength is reported as the endpoint turbidity assay result. The average of the three wavelengths is used to compare turbidity of compounds. Compounds are considered to have low solubility if the threshold concentration is <31.3 μM, moderate solubility if the threshold concentration is 31.3 μM to 250 μM, and high solubility if the threshold concentration is >250 μM.

In the case of `Cc1cc(CNc2ccc(Cc3c[nH]c4ncc(Cl)cc34)c(F)n2)ccn1` [Compound P-2075, [5-(5-Chloro-1H-pyrrolo[2,3-b]pyridin-3-ylmethyl)-6-fluoro-pyridin-2-yl]-(2-methyl-pyridin-4-ylmethyl)-amine], the “turbidity threshold (L, M, H) 1.4” value is reported as “H (high solubility if the threshold concentration is >250 μM)”.

Same assay, conditions: pH 4.5 (SIF)

With `Cc1cc(CNc2ccc(Cc3c[nH]c4ncc(Cl)cc34)c(F)n2)ccn1` [Compound P-2075, [5-(5-Chloro-1H-pyrrolo[2,3-b]pyridin-3-ylmethyl)-6-fluoro-pyridin-2-yl]-(2-methyl-pyridin-4-ylmethyl)-amine] the “turbidity threshold (L, M, H) 4.5” value was “M (moderate solubility if the threshold concentration is 31.3 μM to 250 μM)”.

Same assay, conditions: pH 6.8 (SIF)

For `Cc1cc(CNc2ccc(Cc3c[nH]c4ncc(Cl)cc34)c(F)n2)ccn1` [Compound P-2075, [5-(5-Chloro-1H-pyrrolo[2,3-b]pyridin-3-ylmethyl)-6-fluoro-pyridin-2-yl]-(2-methyl-pyridin-4-ylmethyl)-amine], the “turbidity threshold (L, M, H) 6.8” value was “L (low solubility if the threshold concentration is <31.3 μM)”.

Same assay, conditions: pH 7.4 (HEPES)

For `Cc1cc(CNc2ccc(Cc3c[nH]c4ncc(Cl)cc34)c(F)n2)ccn1` [Compound P-2075, [5-(5-Chloro-1H-pyrrolo[2,3-b]pyridin-3-ylmethyl)-6-fluoro-pyridin-2-yl]-(2-methyl-pyridin-4-ylmethyl)-amine], the “turbidity threshold (L, M, H) 7.4” value was “M (moderate solubility if the threshold concentration is 31.3 μM to 250 μM)”.
